Assay results as given in ChEMBL document CHEMBL1201862, “PubChem BioAssay data set” (2004).
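Interpolation was linear, between the two tested concentrations surrounding the appropriate level; five concentrations were tested over 48 hours in 96-well plates. GI50 marks 50% less growth.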 Calls of active or inactive are those of the source. No stated cut-off is given here; in the data, active = GI50 up to about 1.1 µM and inactive = higher.

Key:
Assay in all cases: NCI-60 cell line screen, 48 h
[1] = system: ACHN
[2] = system: CAKI-1
[3] = system: HCT-15
[4] = system: HT-29
[5] = system: IGROV-1
[6] = system: KM12
[7] = system: MCF7
[8] = system: MDA-N
[9] = system: MOLT-4
[10] = system: Malme-3M
[11] = system: NCI/ADR-RES
[12] = system: OVCAR-3
[13] = system: RXF 393
[14] = system: SF-295
[15] = system: SF-539
[16] = system: SK-MEL-5
[17] = system: SNB-75
[18] = system: TK-10
[19] = system: U-251
[20] = system: UACC-257

Measured: GI50

NC(=O)N/N=C(/CC1C(=O)Oc2ccccc21)c1ccccc1O (stereo not given)
38.4 µM: [3]
inactive: [1] 39.7 µM | [2] 49 µM | [4] 69 µM | [5] 36.6 µM | [6] 31.9 µM | [7] 48.1 µM | [8] 45.5 µM | [9] 20.2 µM | [10] > 100 µM | [11] 25.9 µM | [12] 78.2 µM | [13] 29.6 µM | [14] 42.5 µM | [15] 25.6 µM | [16] 58.6 µM | [17] 41.3 µM | [18] 53.8 µM | [19] 30.1 µM | [20] 44.7 µM

O=C1N/C(=N/N=C\c2ccccc2)N/C1=C/c1ccccc1
32.9 µM: [3]
inactive: [1] 13.2 µM | [2] 27.8 µM | [4] 24.9 µM | [5] 24.8 µM | [6] 22.5 µM | [7] 31.5 µM | [8] 30.6 µM | [9] 14.4 µM | [10] 34.2 µM | [11] 22.9 µM | [12] 32.2 µM | [13] 30 µM | [14] 38.9 µM | [15] 20.5 µM | [16] 35.4 µM | [17] 25.6 µM | [18] 38.5 µM | [19] 33.7 µM | [20] 53.6 µM

COc1cc(OC)c(OC)cc1/C=C/c1cnnc2ccccc12
inactive: [1] > 10 µM | [2] > 10 µM | [4] > 10 µM | [5] > 10 µM | [6] > 10 µM | [7] 1.68 µM | [8] 4.05 µM | [9] > 10 µM | [10] > 10 µM | [11] > 10 µM | [12] > 10 µM | [13] > 10 µM | [14] > 10 µM | [15] > 10 µM | [16] > 10 µM | [17] 2.85 µM | [18] > 10 µM | [19] > 10 µM | [20] > 10 µM
> 10 µM: [3]

COc1ccc(-c2cn3c(nc4ccccc43)c(C)n2)cc1
> 93.1 µM: [3]
inactive: [1] 45.2 µM | [2] 52.1 µM | [4] > 100 µM | [5] 28.8 µM | [6] > 100 µM | [7] 12.2 µM | [8] > 100 µM | [9] > 100 µM | [10] 69.2 µM | [11] 33.6 µM | [12] 54.8 µM | [13] 44.5 µM | [14] 55 µM | [15] 76.7 µM | [16] 21.5 µM | [17] > 50.8 µM | [18] 58.9 µM | [19] 50.4 µM | [20] > 61.9 µM

N#C/C(=C\Nc1ccccn1)C(=O)c1ccco1
> 100 µM: [3]
inactive: [1] > 100 µM | [2] > 100 µM | [4] > 100 µM | [5] > 100 µM | [6] > 100 µM | [7] > 100 µM | [8] > 100 µM | [9] 39.6 µM | [10] > 100 µM | [11] > 100 µM | [12] > 100 µM | [13] > 100 µM | [14] > 100 µM | [15] > 100 µM | [16] > 100 µM | [17] > 100 µM | [18] > 100 µM | [19] > 100 µM | [20] > 100 µM

CCOC(=O)C(NC(=O)OCc1ccccc1)C(=O)O (stereo not given)
inactive: [1] > 100 µM | [2] > 100 µM | [4] > 100 µM | [5] > 100 µM | [6] > 100 µM | [7] > 100 µM | [8] > 100 µM | [9] > 100 µM | [10] > 100 µM | [11] > 100 µM | [12] > 100 µM | [13] > 100 µM | [14] > 100 µM | [15] > 100 µM | [16] > 100 µM | [17] > 100 µM | [18] > 100 µM | [19] > 100 µM | [20] > 100 µM
> 100 µM: [3]
